Where two headings read alike, the source gives them in different places.
Tests used:
U87 glioblastoma cells = test: MTT cell viability, U87; type: cell-based; details: Homo sapiens, 72 h, read-out: IC50 U87 (GBM)
Procedure: (§1) U87-MG, U251-MG and NCI-H1299 cells were purchased from ATCC, while MKN45 was obtained from the Leibniz Institute DSMZ-German Collection of Microorganisms and Cell Cultures and the RWP1 cell line was kindly provided by Dr. Francisco Real. Cells were cultured in DMEM or RPMI (Gibco, Waltham, MA, USA) supplemented with 10% FBS, 100 U/mL penicillin and streptomycin and 2 mM L-Glutamine. Patient-derived glioma neural stem cells (GNS166 and GNS179) were kindly provided by Dr. Steve Pollard. These cells were cultured in adhesion plates treated with laminin A in DMEM/F12 media (Gibco) supplemented with N2 (Gibco), B27 (Gibco), D-(+)-Glucose solution 45% (Sigma-Aldrich, Burlington, MA, USA), basic Fibroblast Growth Factor (Gibco) and epidermal growth factor (Sigma-Aldrich). Normal human astrocytes (NHAs) were purchased from ScienCell and cultured using an astrocyte medium kit (ScienCell, San Diego, CA, USA) supplemented with FBS and Astrocyte Growth Supplement (AGS). All cells were maintained at standard conditions of 37 °C, 95% humidity, 21% O2 and 5% CO2, and cultures were regularly tested for Mycoplasma.
(§2) Cells were seeded in 96-well plates at a density of 1.5 × 10^3 or 5 × 10^3 cells/well (conventional cell lines or GNS and NHAs, respectively) and incubated overnight. Next, cells were treated with increasing concentrations of the compounds, and after 72 h, they were incubated for 3.5 h with MTT. Then, absorbance at 570 nm was measured. GraphPad Prism software version 10.4.1 was used to calculate the IC50 values.

U251 glioma cells = test: MTT cell viability, U251; type: cell-based; details: Homo sapiens, U-251, 72 h, read-out: IC50 U251 (GBM)
Procedure: as §1
(§3) Cells were seeded in 96-well plates at a density of 1.5 × 10^3 or 5 × 10^3 cells/well (conventional cell lines or GNS and NHAs, respectively) and incubated overnight. […] Then, absorbance at 570 nm was measured. […]

[1] = system: GNS166 patient-derived glioma stem cells; test: MTT cell viability, GNS166; type: cell-based; details: Homo sapiens, 72 h, read-out: IC50 GNS166 (GBM)
Procedure: as §1, §3

[2] = system: NHA primary human astrocytes; test: MTT cell viability, NHA; type: cell-based; details: Astrocyte, 72 h, non-tumor cells
Procedure: as §1, §3

[3] = system: MKN45 gastric cancer cells; test: MTT cell viability, MKN45; type: cell-based; details: Homo sapiens, MKN-45, 72 h
Procedure: as §1, §3

[4] = system: RWP1 pancreatic cancer cells; test: MTT cell viability, RWP1; type: cell-based; details: Homo sapiens, 72 h
Procedure: as §1, §3

H1299 lung cancer cells = test: MTT cell viability, H1299; type: cell-based, human
Procedure: as §1, §2

recombinant hMAO-B = target: T1, recombinant hMAO-B (Homo sapiens, UniProt P27338); test: MAO-B inhibition assay; type: biochemical; details: for MAO inhibition MAO-B % / inhibition at 10 µM: 10 μM
T1 sequence (P27338 1-520): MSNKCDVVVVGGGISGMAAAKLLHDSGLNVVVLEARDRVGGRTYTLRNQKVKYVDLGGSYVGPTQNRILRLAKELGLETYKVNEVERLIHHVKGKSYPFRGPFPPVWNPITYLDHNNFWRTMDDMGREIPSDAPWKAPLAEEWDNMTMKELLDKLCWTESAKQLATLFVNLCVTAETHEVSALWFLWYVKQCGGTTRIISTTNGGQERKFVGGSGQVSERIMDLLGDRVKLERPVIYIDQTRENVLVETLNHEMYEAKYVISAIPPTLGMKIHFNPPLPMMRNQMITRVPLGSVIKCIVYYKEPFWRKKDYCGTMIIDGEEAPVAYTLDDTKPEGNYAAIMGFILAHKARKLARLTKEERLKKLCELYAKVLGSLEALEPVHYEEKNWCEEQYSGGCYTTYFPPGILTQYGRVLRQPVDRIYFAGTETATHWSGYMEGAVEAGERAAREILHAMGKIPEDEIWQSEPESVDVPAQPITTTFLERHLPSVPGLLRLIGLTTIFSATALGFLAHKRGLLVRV
Procedure: […] Next, horseradish peroxidase (200 U/mL), Ampliflu Red (20 mM) and tyramine hydrochloride (100 mM) (Sigma-Aldrich) were added, and absorbance was measured at 570 nm every 5 min for 30 min. The percentage of inhibition was calculated from the absorbance values.

AChE = AChE (Homo sapiens, UniProt P22303); test: AChE inhibition, Ellman's colorimetric method; type: biochemical; details: read-out: ChE inhibition AChE %
Procedure: (§4) The inhibitory capacity of the compounds on ChEs was assessed using Ellman’s colorimetric method. Briefly, an inhibitor solution containing 10 µM of the MSMs and 0.3 mM DTNB was incubated for 20 min with the enzyme solution ([…]) at 37 °C. […] Inhibition percentages were calculated from these values. […] Further, enzyme kinetics were studied using different substrate and inhibitor concentrations. Results were represented in a Lineweaver–Burk plot using GraphPad Prism, and the constant of inhibition (Ki) was estimated from the point at which the line cuts the x-axis in the secondary plot.

BChE [5] = target: T2, BChE (Homo sapiens, UniProt P06276); test: BChE inhibition, Ellman's colorimetric method; type: biochemical; details: for inhibition at 10 µM: read-out: ChE inhibition BChE %
Procedure: as §4

HDAC6 = test: Western blot of acetylated α-tubulin (HDAC6 target); type: cell-based, human; details: GNS166 and U87 cells
Procedure: Sodium dodecyl sulfate–polyacrylamide gel electrophoresis was performed. Primary antibodies against HDAC1 (Abcam, Cambridge, UK) and HDAC6 (Cell Signaling, Dancers, MA, USA) and their main targets, acetylated H3 (Cell Signaling) and acetylated α-tubulin (Abcam), were used; acetylated lysine (Cell Signaling) and β-actin (Sigma-Aldrich) were used as endogenous controls. Secondary antibodies conjugated to horseradish peroxidase were anti-rabbit or anti-mouse (Cell Signaling). Proteins were detected using the iBright imaging system and NOVEX ECL Chemi Substrate or SuperSignal West Femto Maximum Sensitivity Substrate (ThermoFisher, Waltham, MA, USA).

[6] = system: GNS166, GNS179, U87 and U251 cells; test: Immunofluorescence of Ki67, p-H3 and cleaved caspase-3; type: cell-based, human; details: 1, 3 and 5 μM, 48 h; for proliferative markers (Ki67- and p-H3-positive cells): all glioma cell types
Procedure: For immunofluorescence assays, cells were seeded at a density of 2 × 10^4 cells/well in 8-well immunofluorescence chambers (LabTek Thermo, Waltham, MA, USA) and incubated overnight. Then, cells were treated for 48 h and fixed with 4% PFA. Primary antibodies against phospho-histone H3 (p-H3) (Abcam), cleaved caspase-3 (Casp3) (R&D Systems, Minneapolis, MN, USA) and Ki67 (Abcam) and secondary antibodies Alexa Fluor anti-mouse and anti-rabbit (Invitrogen, Carlsbad, CA, USA) were used. Nuclei were stained with DAPI (Sigma-Aldrich). Pictures were taken with an Axio Observer 7 epifluorescence microscope, and Qupath version 0.6.0 was used for quantifications. Percentages of Ki67-, p-H3- and Casp3-positive cells were calculated, taking into account the number of nuclei.

GNS166 cells = test: RNA-seq; type: cell-based, human; details: 5 µM
Text: For transcriptomic analysis, total RNA was extracted and samples were sent to BGI Tech Solutions. […] Genes presenting a fold-change value ≥4 or ≤−4 and an FDR-adjusted p-value < 0.01 were defined as differentially expressed and used to perform downstream enrichment studies.

[7] = In vivo toxicity, body weight; design: species or system athymic nude-Foxn1nu mice; details: intraperitoneal, 3 days per week
U87 subcutaneous tumors = test: Subcutaneous U87 tumor growth and tumor immunohistochemistry; type: in vivo, athymic nude-Foxn1nu mice; details: 50 mg/kg i.p.; for final tumor volume: 3 days per week for 4 weeks, control ~750; for decrease in the number of Ki67-positive cells (IHC): resected tumors
Procedure: For carcinogenesis studies, subcutaneous tumor growth experiments were performed via the injection of 5 × 10^5 cells into two bottom flanks of athymic nude-Foxn1^nu mice. Once tumors reached a size of 25–50 mm^3, mice were sorted into different treatment groups based on their gender and tumor size. An external caliper was used for tumor size measurement, and the tumor volume was estimated using the formula V = L·W^2·0.5 (where L is tumor length and W is tumor width). […] Sample size was calculated, taking into account that control groups could have an average size of 700 mm^3 and we wanted to detect a difference of […]. For the cytotoxic experiment, 8 controls and 8 treated animals were used, while for the efficacy experiment 12 control animals and 8 treated animals were used.
Subcutaneous tumors were extracted, fixed with 4% formaldehyde for 48 h and embedded in paraffin. Tumor sections were obtained and stainings for Ki67 (Ab16667, Abcam), acetyl H3 (9649, Cell Signaling) and acetylated α-tubulin (ab179484, Abcam) were performed. A ZEISS Axioscan 7 slide scanner was used to capture images of the stainings, and analyses were performed using Qupath.

BChE [8] = target: T2, BChE; test: BChE inhibition, Ellman's colorimetric method; type: biochemical; details: read-out: ChE inhibition BChE %
recombinant hMAO-A = target: T3, recombinant hMAO-A (Homo sapiens, UniProt P21397); test: MAO-A inhibition assay; type: biochemical; details: increasing concentrations of inhibitor
T3 sequence (P21397 1-527): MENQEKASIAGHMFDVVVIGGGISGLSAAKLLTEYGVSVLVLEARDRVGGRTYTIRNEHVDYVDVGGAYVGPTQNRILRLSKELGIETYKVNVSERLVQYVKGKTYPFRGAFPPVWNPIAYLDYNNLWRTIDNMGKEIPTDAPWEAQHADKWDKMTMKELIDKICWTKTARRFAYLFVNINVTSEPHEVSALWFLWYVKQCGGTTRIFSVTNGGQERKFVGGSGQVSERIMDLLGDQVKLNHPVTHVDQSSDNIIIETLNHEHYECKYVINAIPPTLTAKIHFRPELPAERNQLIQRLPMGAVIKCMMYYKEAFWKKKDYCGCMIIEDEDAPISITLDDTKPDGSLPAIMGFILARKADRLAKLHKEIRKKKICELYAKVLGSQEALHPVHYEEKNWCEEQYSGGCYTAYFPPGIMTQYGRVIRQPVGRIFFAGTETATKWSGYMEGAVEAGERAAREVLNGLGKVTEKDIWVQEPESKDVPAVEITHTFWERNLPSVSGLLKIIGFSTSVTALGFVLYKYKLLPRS
Procedure: For MAO inhibition studies, the enzyme solution (0.5 U/mL recombinant hMAO-A or 1.5 U/mL recombinant hMAO-B) was incubated with an inhibitor solution containing 10 µM of the compounds for 30 min at 37 °C. Next, horseradish peroxidase (200 U/mL), Ampliflu Red (20 mM) and tyramine hydrochloride (100 mM) (Sigma-Aldrich) were added, and absorbance was measured at 570 nm every 5 min for 30 min. The percentage of inhibition was calculated from the absorbance values.

[9] = increasing concentrations of inhibitor

T2 sequence (P06276 29-602, species assumed): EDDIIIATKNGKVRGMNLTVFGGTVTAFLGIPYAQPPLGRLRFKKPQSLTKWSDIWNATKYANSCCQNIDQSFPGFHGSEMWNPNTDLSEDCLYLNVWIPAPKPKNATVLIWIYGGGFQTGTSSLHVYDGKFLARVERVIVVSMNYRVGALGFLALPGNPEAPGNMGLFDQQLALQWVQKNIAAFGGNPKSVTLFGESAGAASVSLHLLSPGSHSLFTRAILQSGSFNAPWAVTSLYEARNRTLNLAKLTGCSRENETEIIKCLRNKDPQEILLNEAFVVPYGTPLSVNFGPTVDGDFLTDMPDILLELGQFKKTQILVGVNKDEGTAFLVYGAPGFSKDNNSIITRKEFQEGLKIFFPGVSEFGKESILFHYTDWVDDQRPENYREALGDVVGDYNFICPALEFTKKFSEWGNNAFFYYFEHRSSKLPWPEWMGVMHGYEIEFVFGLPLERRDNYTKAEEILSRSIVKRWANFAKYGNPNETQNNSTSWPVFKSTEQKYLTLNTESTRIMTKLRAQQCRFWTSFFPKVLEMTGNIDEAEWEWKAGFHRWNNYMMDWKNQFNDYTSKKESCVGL
AChE, sequence (P22303 32-614): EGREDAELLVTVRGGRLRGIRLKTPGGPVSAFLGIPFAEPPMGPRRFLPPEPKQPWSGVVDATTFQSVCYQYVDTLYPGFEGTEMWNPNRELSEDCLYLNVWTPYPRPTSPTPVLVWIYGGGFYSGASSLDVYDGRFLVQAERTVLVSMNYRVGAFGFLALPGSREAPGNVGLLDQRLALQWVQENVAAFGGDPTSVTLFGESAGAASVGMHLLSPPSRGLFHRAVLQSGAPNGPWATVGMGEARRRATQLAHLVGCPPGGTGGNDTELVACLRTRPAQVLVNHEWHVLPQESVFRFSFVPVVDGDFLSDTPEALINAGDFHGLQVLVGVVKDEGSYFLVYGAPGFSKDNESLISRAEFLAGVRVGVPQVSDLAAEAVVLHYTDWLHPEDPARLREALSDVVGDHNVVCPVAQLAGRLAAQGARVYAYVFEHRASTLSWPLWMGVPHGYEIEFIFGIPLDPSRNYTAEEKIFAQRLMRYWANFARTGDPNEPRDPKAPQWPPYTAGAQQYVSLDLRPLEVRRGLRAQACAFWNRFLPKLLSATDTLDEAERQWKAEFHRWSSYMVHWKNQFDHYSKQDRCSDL

Compound	IC50 (U87 glioblastoma cells)	IC50 (U251 glioma cells)	IC50 [1]	IC50 [2]	IC50 (H1299 lung cancer cells; Homo sapiens, NCI-H1299, 72 h)	inhibition at 1 µM (recombinant hMAO-B)	MAO inhibition MAO-B % (recombinant hMAO-B)	inhibition at 10 µM (recombinant hMAO-B)	inhibition at 10 µM (AChE)	inhibition at 10 µM (BChE [5]; 10 μM)	levels of acetyl-α-tubulin (HDAC6)	proliferative markers (Ki67- and p-H3-positive cells) [6]	FC of CDKN1A (RNA-seq) (GNS166 cells)	FC of MKI67 (RNA-seq) (GNS166 cells)	body weight vs control animals [7]	final tumor weight, lower compared to controls (U87 subcutaneous tumors)	final tumor volume (U87 subcutaneous tumors)	decrease in the number of Ki67-positive cells (IHC) (U87 subcutaneous tumors)	inhibition at 1 µM (BChE [8]; 1 μM)	further results
CCCNNC(=O)c1ccc(S(=O)(=O)n2ccc3cc(OCCCN4CCCCC4)ccc32)cc1 [FRB44]	~1.5 µM	3.1 µM	15 µM	41.4 µM	11 µM	18%	70%	69%	24%	71%	increased	clear reductions	3.53 fold	0.09 fold	no statistically significant differences	62.5%	~ 325 mm^3	around 30%	20%	IC50 [3]: 4.1 µM; IC50 [4]: 0.7 µM; IC50 (recombinant hMAO-B; [9]): 3.16 µM; Type of inhibition (BChE [5]): Mixed; ChE inhibition BChE % (BChE [5]; 10 μM): 70%; Type of inhibition (BChE [5]; BChE, Lineweaver-Burk plot): mixed inhibition; Ki (BChE [5]; BChE, secondary plot of Lineweaver-Burk slopes): 1.36 µM; IC50 (BChE [5]; [9]): 8.24 µM
C#CCN1CCN(CCCOc2ccc3c(ccn3S(=O)(=O)c3ccc(C(=O)NNCCC)cc3)c2)CC1 [FRB56]	~1.5 µM	12 µM	13.7 µM	26.6 µM	4.9 µM	83%	90%	89%	13%	15%	increased	clear reductions	3.12 fold	0.06 fold	no statistically significant differences	61.4%	~ 280 mm^3	around 30%	10%	IC50 (H1299 lung cancer cells; 72 h): < 5 µM; IC50 (recombinant hMAO-A): 1.68 µM
CCN(C)C(=O)Oc1cccc([C@H](C)N(C)C)c1 [Rivastigmine, reference compound]																				inhibition at 10 µM (BChE [5]): 100%; inhibition at 1 µM (BChE [8]): 100%
CN1CCc2c(c3ccccc3n2Cc2ccc(C(=O)NO)cc2)C1 [Tubastatin A]											higher levels of acetylated α-tubulin than the FRBs									cleaved caspase-3-positive cells [6]: slightly increased
